Test results: patent US11466029B2, “Compounds useful to treat influenza virus infections” (Nanjing Zhengxiang Pharmaceuticals Co., Ltd., priority 2019, dated 2022)
Entries after “also recorded” stand apart in the source; their conditions may differ. Where two headings read alike, the source gives them in different places.

Assays:
[1] = molecular target: Influenza Virus CEN PAn enzyme (UniProt P03433); type: biochemical; details: read-out: CEN IC50
[2] = Liver microsomal stability; details: human, liver microsomes
[3] = Liver microsomal stability; details: cynomolgus monkey, liver microsomes
[4] = Liver microsomal stability; details: dog, liver microsomes
[5] = Liver microsomal stability; details: rat, liver microsomes
[6] = Liver microsomal stability; details: mouse, liver microsomes
IFV A/PR/8/34 (H1N1) = experiment: microbe, parasite or virus in culture; type: cell-based; details: Influenza A virus, MDCK, 120 h
IFV A/WSN/33 (H1N1) = experiment: microbe, parasite or virus in culture; type: cell-based; details: Influenza A virus, MDCK, 120 h
[7] = tested on: A/California/07/2009 (H1N1)pdm09; experiment: microbe, parasite or virus in culture; type: cell-based; details: Influenza A virus, H1N1, MDCK, 120 h
A/Hongkong/8/68 (H3N2) = experiment: microbe, parasite or virus in culture; type: cell-based; details: Influenza A virus, H3N2, MDCK, 120 h
B/Florida/78/2015 = experiment: microbe, parasite or virus in culture; type: cell-based; details: Influenza B virus, 120 h
B/Lee/40 = experiment: microbe, parasite or virus in culture; type: cell-based; details: Influenza B virus, 120 h
in vitro = details: dog
[8] = in vivo; cited from earlier work
A/Weiss/43 (H1N1) = experiment: microbe, parasite or virus in culture; type: cell-based; details: Influenza A virus, H1N1, MDCK, 120 h
influenza virus = type: cell-based
influenza virus PR/8/34 = tested on: influenza virus PR/8/34; design: species or system Balb/c mice; details: in vivo; for body weight loss: 5 mg/kg
Pharmacokinetics in Rats = type: in vivo; design: AUClast: unit not given here; details: non-fasted male SD rats, plasma B-1
Protocol: C-1 was administered to 3 non-fasted male SD rats via oral gavage at 3 mg/kg.

[9] = male CD-1 mice, plasma B-1
Protocol: (§1) B-1 was administered to male CD-1 mice (4-6 weeks old, 20-30 grams, 3 animals each group) via intravenous (IV) bolus at 1 mg/kg and by oral gavage (PO) at 10 mg/kg. […] All animals had free access to food and water prior to dosing. Blood samples (˜0.03 mL each time point) were collected via the jugular vein into tubes containing sodium heparin as the anticoagulant at 0.033, 0.083, 0.25, 0.5, 1, 2, 4, 8 and 24 hours post dose for IV administration and 0.083, 0.25, 0.5, 1, 2, 4, 8 and 24 hours post dose for PO administration. The blood samples were then centrifuged for 5 minutes in a centrifuge refrigerated at 4° C. The resultant plasma samples were analyzed using LC/MS/MS to determine concentrations of B-1. Non-compartmental model with WinNonlin (Phoenix™, version 8.0) software was used to calculate pharmacokinetic (PK) parameters.

[10] = for AUClast: plasma B-1
Protocol: (§2) B-1 was administered to male cynomolgus monkeys (2-5 years old, 2-5 kg, 3 animals each group) via intravenous (IV) bolus at 0.25 mg/kg and by oral gavage (PO) at 1 mg/kg; Animals in the IV group had free access to food and water (non-fasted) and animals in the PO group were fasted overnight prior to dosing (fasted). C-1 was administered to male cynomolgus monkeys (fasted or non-fasted, 3 each group) via oral gavage at 1 mg/kg. Blood samples (˜0.5 mL each time point) were collected via the jugular vein into tubes containing potassium ethylenediaminetetraacetic acid (K2EDTA) as the anticoagulant at 0.033, 0.083, 0.25, 0.5, 1, 2, 4, 8 and 24 hours post dose for IV administration and 0.083, 0.25, 0.5, 1, 2, 4, 8 and 24 hours post dose for PO administration. The blood samples were then centrifuged for 10 minutes in a centrifuge refrigerated at 2-8° C. The resultant plasma samples were analyzed using LC/MS/MS to determine concentrations of B-1. Non-compartmental model with WinNonlin (Phoenix™, version 6.1) software was used to calculate pharmacokinetic (PK) parameters.

in vivo [11] = details: male, CD-1, mouse, iv, 1 mg/kg
Protocol: as §1

in vivo [12] = details: male, cynomolgus monkey, iv, 0.25 mg/kg
Protocol: as §2

[13] = Toxicity study, oral gavage once daily for 7 days; type: in vivo, Sprague Dawley (SD) rats
Protocol: A toxicity study of C-1 was conducted in Sprague Dawley (SD) rats. C-1 at 20, 100 and 500 mg/kg or vehicle (0.5% w/v CMC-Na and 0.1% v/v Tween-80 in DI water) was administered via oral gavage to Sprague Dawley rats (7-9 weeks, about 250-300 grams each for males and about 200-250 grams each for females) once daily for 7 days. 8 females and 8 males in each dose group were used.

[14] = Sprague-Dawley (SD), rat, IV 0.25 mg/kg
[15] = PO 1 mg/kg, fasted male cynomolgus monkeys
[16] = B/Florida/78/2015, MDCK cells, 5 days, read-out: EC50
[17] = B/Lee/40, MDCK cells, 5 days, read-out: EC50

O=C1c2c(O)c(=O)ccn2N(C2c3ccccc3[Se]Cc3c2ccc(F)c3F)C2COCCN12 (single isomer, unassigned) [Compound A-1-P1, 12-(7,8-Difluoro-6,11-Dihydrodibenzo[b,e]Selenepin-11-yl)-7-Hydroxy-3,4,12,12a-Tetrahydro-1H-[1,4]Oxazino[3,4-c]Pyrido[2,1-f][1,2,4]Triazine-6,8-Dione]
IC50 [1]: 42 nM

O=C1c2c(O)c(=O)ccn2N(C2c3ccccc3[Se]Cc3c2ccc(F)c3F)C2COCCN12 (single isomer, unassigned) [Compound A-1-P2, 12-(7,8-Difluoro-6,11-Dihydrodibenzo[b,e]Selenepin-11-yl)-7-Hydroxy-3,4,12,12a-Tetrahydro-1H-[1,4]Oxazino[3,4-c]Pyrido[2,1-f][1,2,4]Triazine-6,8-Dione]
IC50 [1]: 25 nM | half-life [2]: 60.9 h | microsomal CLint [2]: 2.2 µL/min/mg | half-life [3]: 1.42 h | microsomal CLint [3]: 16 µL/min/mg | half-life [4]: 6.25 h | microsomal CLint [4]: 4.5 µL/min/mg | half-life [5]: 2.88 h | microsomal CLint [5]: 8.3 µL/min/mg | half-life [6]: 4.77 h | microsomal CLint [6]: 5.2 µL/min/mg

CP(C)(=O)c1cn2c(c(O)c1=O)C(=O)N1CCOCC1N2C1c2ccccc2SCc2c1ccc(F)c2F (single isomer, unassigned) [Compound E-1a, 12-(7,8-difluoro-6,11-dihydrodibenzo[b,e]thiepin-11-yl)-9-(dimethylphosphoryl)-7-hydroxy-3,4,12,12a-tetrahydro-1H-[1,4]oxazino[3,4-c]pyrido[2,1-f][1,2,4]triazine-6,8-dione]
IC50 [1]: 31 nM

CP(C)(=O)c1cn2c(c(O)c1=O)C(=O)N1CCOCC1N2C1c2ccccc2SCc2c1ccc(F)c2F (single isomer, unassigned) [Compound E-1b, 12-(7,8-difluoro-6,11-dihydrodibenzo[b,e]thiepin-11-yl)-9-(dimethylphosphoryl)-7-hydroxy-3,4,12,12a-tetrahydro-1H-[1,4]oxazino[3,4-c]pyrido[2,1-f][1,2,4]triazine-6,8-dione]
IC50 [1]: 32 nM

O=C1c2c(O)c(=O)ccn2N([C@@H]2c3ccccc3SCc3c2ccc(F)c3F)[C@@H]2COCCN12 [Baloxavir acid, reference compound]
IC50 [1]: 14 nM | EC50 (IFV A/PR/8/34 (H1N1)): 0.73 nM | EC50 (IFV A/WSN/33 (H1N1)): 0.44 nM | EC50 [7]: 0.66 nM | EC50 (A/Hongkong/8/68 (H3N2)): 1.7 nM | EC50 (B/Florida/78/2015; MDCK): 16 nM | EC50 (B/Lee/40; MDCK): 6.3 nM | CC50 (in vitro): 12000 nM | oral availability [8]: poor oral availability

O=C1c2c(O)c(=O)ccn2N([C@@H]2c3ccccc3[Se]Cc3c2ccc(F)c3F)[C@@H]2COCCN12 [Compound B-1, (R)-12-((S)-7,8-Difluoro-6,11-Dihydrodibenzo[b,e]Selenepin-11-yl)-7-Hydroxy-3,4,12,12a-Tetrahydro-1H-[1,4]Oxazino[3,4-c]Pyrido[2,1-f][1,2,4]Triazine-6,8-Dione]
IC50 [1]: 15 nM | EC50 (IFV A/PR/8/34 (H1N1)): 1.1 nM | EC50 (IFV A/WSN/33 (H1N1)): 0.32 nM | EC50 (A/Weiss/43 (H1N1)): 1.2 nM | EC50 [7]: 0.37 nM | EC50 (A/Hongkong/8/68 (H3N2)): 0.68 nM | EC50 (B/Florida/78/2015; MDCK): 25 nM | EC50 (B/Lee/40; MDCK): 12 nM | antivirus activity (influenza virus): potent antivirus activity | antivirus efficacy in influenza virus PR/8/34 mouse model (influenza virus PR/8/34): potent antivirus efficacy; also recorded: potent antivirus activity | survival (influenza virus PR/8/34; mouse, po): survived throughout the study | body weight loss (influenza virus PR/8/34; mouse, po): minimal | AUClast (Pharmacokinetics in Rats; IV 0.25 mg/kg): 84 | AUClast (Pharmacokinetics in Rats; PO 3 mg/kg): 123 | AUC(0-inf) (Pharmacokinetics in Rats; [14]): 92 ng·h/mL | half-life (Pharmacokinetics in Rats; [14]): 4 h | cytotoxicity (MDCK cells): little cytotoxicity | AUClast ([9]; IV 1 mg/kg): 601 | AUClast ([9]; PO 10 mg/kg): 2129 | AUClast ([10]; IV 0.25 mg/kg, non-fasted male cynomolgus monkeys): 204 | AUClast [10, 15]: 231 | AUC(0-inf) (in vivo [11]): 608 ng·h/mL | half-life (in vivo [11]): 4.1 h | AUC(0-inf) (in vivo [12]): 257 ng·h/mL | half-life (in vivo [12]): 11 h | CC50 (in vitro): 13000 nM

COC(=O)OCOc1c2n(ccc1=O)N(C1c3ccccc3[Se]Cc3c1ccc(F)c3F)[C@@H]1COCCN1C2=O (some centres unmarked) [Compound C-1]
IC50 [1]: 1550 nM | antivirus efficacy in influenza virus PR/8/34 mouse model (influenza virus PR/8/34): potent antivirus activity | improvement in body weight loss (influenza virus PR/8/34; mouse, po): significant dose-dependent improvement | survival (influenza virus PR/8/34; mouse, po): survived throughout the study | body weight loss (influenza virus PR/8/34; mouse, po): minimal | AUClast (Pharmacokinetics in Rats; PO 3 mg/kg): 280 | MTD at 7 days ([13]; both sexes, Sprague Dawley, rat, in vivo, oral gavage once daily for 7 days, read-out: maximum tolerated dose (MTD)): > 500 mg/kg/day | toxic findings (clinical observation, body weight, food consumption, gross pathology) ([13]; in words, 20, 100 and 500 mg/kg oral gavage once daily for 7 days): No C-1-related toxic findings | tolerability ([13]; in words, oral gavage once daily for 7 days): well tolerated | AUClast ([9]; PO 10 mg/kg): 2834 | AUClast [10, 15]: 414 | AUClast ([10]; PO 1 mg/kg, non-fasted male cynomolgus monkeys): 400 | food effect / impact of feeding condition on oral absorption ([10]; in words, cynomolgus monkeys, fasted vs non-fasted): did not impact oral absorption

CP(C)(=O)c1cn2c(c(O)c1=O)C(=O)N1CCOC[C@H]1N2[C@@H]1c2ccccc2SCc2c1ccc(F)c2F [Compound E-1c, (R)-12-((S)-7,8-difluoro-6,11-dihydrodibenzo[b,e]thiepin-11-yl)-9-(dimethylphosphoryl)-7-hydroxy-3,4,12,12a-tetrahydro-1H-[1,4]oxazino[3,4-c]pyrido[2,1-f][1,2,4]triazine-6,8-dione]
EC50 (IFV A/PR/8/34 (H1N1)): 68 nM | EC50 (IFV A/WSN/33 (H1N1)): 58 nM | EC50 (A/Weiss/43 (H1N1)): 133 nM | EC50 [7]: 129 nM | EC50 (A/Hongkong/8/68 (H3N2)): 207 nM | EC50 (B/Florida/78/2015; [16]): > 1000 nM | EC50 (B/Lee/40; [17]): > 1000 nM | CC50 (in vitro): > 100000 nM

CCP(=O)(CC)c1cn2c(c(O)c1=O)C(=O)N1CCOC[C@H]1N2[C@@H]1c2ccccc2SCc2c1ccc(F)c2F [Compound F-1, (R)-9-(Diethylphosphoryl)-12-((S)-7,8-Difluoro-6,11-Dihydrodibenzo[b,e]-Thiepin-11-yl)-7-Hydroxy-3,4,12,12a-Tetrahydro-1H-[1,4]Oxazino[3,4-c]Pyrido[2,1-f][1,2,4]Triazine-6,8-Dione]
EC50 (IFV A/PR/8/34 (H1N1)): > 100 nM | EC50 (IFV A/WSN/33 (H1N1)): 57 nM | EC50 (A/Weiss/43 (H1N1)): 22 nM | EC50 [7]: 125 nM | EC50 (A/Hongkong/8/68 (H3N2)): 310 nM | EC50 (B/Florida/78/2015; [16]): > 1000 nM | EC50 (B/Lee/40; [17]): > 1000 nM | CC50 (in vitro): > 100000 nM

CCC(CC)O[C@@H]1C=C(C(=O)O)C[C@H](N)[C@H]1NC(C)=O [Oseltamivir acid, reference compound]
EC50 (IFV A/PR/8/34 (H1N1)): > 100000 nM | EC50 (IFV A/WSN/33 (H1N1)): > 100000 nM | EC50 (A/Weiss/43 (H1N1)): 476 nM | EC50 [7]: 231 nM | EC50 (A/Hongkong/8/68 (H3N2)): 20 nM | EC50 (B/Florida/78/2015; [16]): 8480 nM | EC50 (B/Lee/40; [17]): 749 nM | CC50 (in vitro): > 100000 nM

COC(=O)OCOc1c2n(ccc1=O)N([C@@H]1c3ccccc3SCc3c1ccc(F)c3F)[C@@H]1COCCN1C2=O [baloxavir marboxil]
oral availability [8]: poor oral availability

CCOC(=O)C1=C[C@@H](OC(CC)CC)[C@H](NC(C)=O)[C@@H](N)C1 [oseltamivir, reference compound]
improvement in body weight loss (influenza virus PR/8/34; mouse, po): did not result in substantial improvement | mice died (influenza virus PR/8/34; mouse, po): 60%
